Values joined by “and” are separate entries in the source; they are usually repeats but may differ in a detail not shown here. Equal values may be shown once.
Columns and labels:
[1] = Serum calcification propensity assay after 4.5 h incubation in enzymatically active human serum; settings: compound at c350 concentration, 37 °C; individual donors, Fig. 2e
[2] = test system: transformation of CPP1 to CPP2 in pooled human serum; test: In vitro serum calcification propensity (T50) screening assay; type: biochemical; design: key to T50: T50 in minutes (time to 50% CPP phase transition); settings: for T50: one value per experiment; for activity/unit mass: mean c350 x mw (Na salt); for concentration upon which a T50 of 350 min is reached (c350), mean: mean of n experiments; for concentration upon which a T50 of 350 min is reached (c350), single experiment: one value per experiment (lab journal reference E05-E40)
Experimental: The compounds were ranked for calcification inhibition activity using a nanoparticle-based test, developed for risk stratification, which measures the propensity for calcification in patient serum. […] The time, after which 50% of CPP phase transition occurred (T50), was assessed by time-resolved spectrophotometry at 550 nm (Supplementary Fig. 1a).
The screening assay was performed as described previously. In brief, pooled human serum (H4522, Sigma-Aldrich) stored at −20 °C was thawed at 37 °C, centrifuged (10,000 × g, and 4 °C, 30 min) (5427R, Eppendorf, Switzerland), and sterile filtered (0.22 μm filter, Millipore, Merck KGaA) to remove potential cryoprecipitates (cleared human serum). The calcium solution was 40 mM CaCl2 (102382, Merck KGaA) in HBS, pH 7.4 (RT) (100 mM HEPES (H3375, Sigma-Aldrich) and 140 mM NaCl (1734712, Fisher Scientific, Hampton, NH, USA)). […] All salt solutions and buffers were double sterile filtered (0.22 µm) and pre-warmed to 37 °C prior to use. […] The plate was sealed with an adhesive film and the absorption at 550 nm was measured every 3 min with 1 min in-between shaking for a total of 300 cycles at 37 °C using the infinite M200 microplate reader (Tecan, Männedorf, Switzerland). An A550 vs. time graph was generated and T50 (min) (time at half-maximum transition from CPP1 to CPP2) values were derived by sigmoidal curve fit using Prism 8 (nonlinear regression in the log(agonist) vs. response–variable slope (four parameter mode) using the robust fit fitting method, GraphPad Software, San Diego, CA, USA). Activities between compounds were compared by generating a T50 (min) vs. concentration (µM) graph, calculating nonlinear regression and deriving the concentration required to delay T50 to 350 min (c350) using a standard equation for the dose–response curve, Eq. (1), whereby x = [compound], y = time (min), bottom = baseline response, top = maximum response, T50 = [drug] that leads to half-maximum response, and the hill slope is a factor that describes the steepness of the curve.1 y= bottom+top - bottom/1+T50/x^hillslope.

CPP2 = test: Competitive 18F-NaF binding assay on CPPs; design: species or system human
Experimental: A ^18F-NaF-based competitive binding assay was developed to indirectly assess the inhibitor affinity (IC50) to CPPs. The uptake mechanism of ^18F-NaF, a marker of micro-calcification activity by chemisorption onto hydroxyapatite crystals, is contingent on the rapid exchange of hydroxyl (OH^−) groups present on the hydroxyapatite surface (Ca5(PO4)3(OH)) by ^18F^− to form fluoroapatite (Ca5(PO4)3^18F)[34],[54].
Triplicate aliquots of CPP2s (20 µg Ca/mL) in 100 μL assay buffer (100 mM HBS, pH 7.4 (RT)) were incubated for 1 h at RT in the presence of increasing concentrations of compounds in 50 μL Milli-Q water and ^18F-NaF (1 nM) in 50 μL assay buffer, resulting in a total incubation volume of 200 μL (^18F-NaF was prepared using a FASTlab synthesizer (GE Healthcare, Little Chalfont, UK) and commercially available ^18F-NaF cassettes (GE Healthcare)). Maximum radiotracer binding was determined by incubating CPP2s with ^18F-NaF (1 nM) only. The reaction was terminated by rapid filtration through a SOLAμ™ SPE plate (HRP 2 mg/mL 96-well plate, 22 μm; Thermo Fisher Scientific). SPE individual column matrices were washed twice rapidly in assay buffer and radioactivity on the filters determined by an automatic gamma counter (Wizard2 Gamma Counter, Perkin Elmer, Waltham, MA, USA). […] IC50 is the concentration of […] that gives a response half way between the bottom and top parts of the curve. ^18F-NaF micro-PET/computed tomography (micro-PET/CT) was employed for ex vivo analysis of (OEG2)2-IP4’s engagement to target calcified human tissue explants, as described previously. […] Following incubations, samples were washed twice in 0.1 M PBS (1 min per wash) and mounted on a Petri dish for micro-PET/CT imaging (nanoPET/CT, Mediso, Budapest, Hungary). In total, seven samples from the femoral arteries of three patients with ischemic peripheral disease and three samples from native aortic valves of three patients undergoing valve replacement surgery were used. All samples were collected at the time of surgery and stored in 4% paraformaldehyde at RT until further use. All patients gave their written, informed consent. All procedures had local ethical approval (06/S0703/110, 12/WS/0227, 09/S0703/118, and 12/NW/0036). All studies were approved by East and West Scotland Research Ethics Committees, and all experiments were conducted according to the principles expressed in the Declaration of Helsinki.

Structure (SMILES): COCCOCCOCCOCCOCCOCCOCCOCCOCCOCCOCCO[C@@H]1[C@@H](OP(=O)(O)O)[C@H](OCCOCCOCCOCCOCCOCCOCCOCCOCCOCCOCCOC)[C@@H](OP(=O)(O)O)[C@@H](OP(=O)(O)O)[C@H]1OP(=O)(O)O [(OEG11)2-IP4, 4,6-Di-O-(methoxy-undecaethyleneglycol)-myo-inositol-1,2,3,5-tetrakis(phosphate)]
- ΔT50 after 4.5 h vs 0 h incubation in enzymatically active human serum [1]: -7 min and 2 min and 28 min and -24 min
- T50 ([2]; concentration 0.3 μM): 225.5 and 216.3 and 217.233
- T50 ([2]; concentration 1 μM): 254.967 and 243.067 and 240.833
- T50 ([2]; concentration 3 μM): 330.833 and 306.033 and 295.1
- T50 ([2]; concentration 5 μM): 429.233 and 399.933 and 420.733
- fold greater molar activity in delaying serum calcification propensity than IP6 ([2]; from c350): ~10 fold
- activity/unit mass [2]: 6.28 mg/L
- concentration upon which a T50 of 350 min is reached (c350), mean [2]: 3.8 µM
- concentration upon which a T50 of 350 min is reached (c350), single experiment [2]: 3.4 µM and 3.9 µM

Structure (SMILES): NCCCC(O)(P(=O)(O)O)P(=O)(O)O [Alendronate, alendronate]
- IC50 (CPP2; CPP2 20 µg Ca/mL, 18F-NaF 1 nM, 1 h RT, read-out: IC50 (reduction of 18F binding to CPP)): 900 nM
- 18F-NaF percentage binding to CPP2 (CPP2; concentration 0.75 (unit not given)): 116.838% and 100.543% and 117.872%
- 18F-NaF percentage binding to CPP2 (CPP2; concentration 2.5 (unit not given)): 108.056% and 108.706% and 117.126%
- 18F-NaF percentage binding to CPP2 (CPP2; concentration 7.5 (unit not given)): 96.3113% and 120.411% and 97.661%
- 18F-NaF percentage binding to CPP2 (CPP2; concentration 25 (unit not given)): 95.6416% and 106.619%
- 18F-NaF percentage binding to CPP2 (CPP2; concentration 75 (unit not given)): 102.247% and 106.699% and 103.897%
- 18F-NaF percentage binding to CPP2 (CPP2; concentration 250 (unit not given)): 99.9294% and 104.809% and 85.4465%
- 18F-NaF percentage binding to CPP2 (CPP2; concentration 1750 (unit not given)): 35.8884% and 43.4211% and 42.6767%
- 18F-NaF percentage binding to CPP2 (CPP2; concentration 2500 (unit not given)): 62.647% and 51.2379% and 44.8192%
- 18F-NaF percentage binding to CPP2 (CPP2; concentration 7500 (unit not given)): 62.7542% and 48.4658% and 45.2944%
- 18F-NaF percentage binding to CPP2 (CPP2; concentration 25000 (unit not given)): 44.4078% and 32.6852% and 32.8795%
- 18F-NaF percentage binding to CPP2 (CPP2; concentration 75000 (unit not given)): 35.0722% and 24.2405% and 29.2905%
- 18F-NaF percentage binding to CPP2 (CPP2; concentration 250000 (unit not given)): 26.7145% and 19.4967% and 18.0105%
- 18F-NaF percentage binding to CPP2 (CPP2; concentration 750000 (unit not given), replicates Fig. 2c): 36.7136% and 30.5284% and 26.7151%
- T50 ([2]; concentration 0.3 μM): 213.8 and 221.6 and 208.733 and 230.4 and 221.333 and 196.833
- T50 ([2]; concentration 1 μM): 222.967 and 230.933 and 225.333 and 238.6 and 229.833 and 230.667
- T50 ([2]; concentration 3 μM): 261.733 and 253 and 230.467 and 264.833 and 255.1 and 255.367
- T50 ([2]; concentration 10 μM): 345.567 and 345.233 and 327.433 and 380.1 and 360.1 and 348.633
- T50 ([2]; concentration 30 μM): 770.3 and 707.4
- activity/unit mass [2]: 2.69 mg/L
- concentration upon which a T50 of 350 min is reached (c350), mean [2]: 9.9 µM
- concentration upon which a T50 of 350 min is reached (c350), single experiment [2]: 9.9 µM and 10.3 µM and 8.3 µM and 9.4 µM and 10.2 µM

Reference: paper PMC7002685, “Inhibition of vascular calcification by inositol phosphates derivatized with ethylene glycol oligomers” (Nature Communications, 2020)
